PubChem BioAssay AID463199 (Broad Institute, 2010)
Calls of active or inactive are those of the source.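 The calls were made as follows: active = AC50, the dose giving half-maximal effect, exceeds a fixed cutoff for a compound that rescues yeast growth under heat; inactive = the rest, inconclusive results apart.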

Test system: S. cerevisiae Burl-1 ts mutant growth, BacTiter-Glo, 38.5C 24 h
Assay: growth induction of Burl-1 ts yeast mutant, dose response, counter-screen for SUMOylation pathway inhibitor project, whole organism, S. cerevisiae, luminescence (AID 463199)

| Structure (SMILES) | AC50 |
| --- | --- |
| CCN(CC)CCCn1c(=S)[nH]c2ccc(Cl)cc2c1=O | 38.6 µM |
| Cc1ccc(N2C(=O)C3N=NN(CC(=O)N4N=C(c5cccc6ccccc56)CC4c4ccccc4)C3C2=O)cc1 (centres undefined) | > 21 µM (inactive) |
| COCCCN1C(=O)c2ccc(C(=O)Nc3ccc(OC)cc3OC)cc2C1=O | > 42 µM (inactive) |
| O=C(COC(=O)c1cccc(Br)c1)Nc1ccc2[nH]c(=O)[nH]c2c1 | > 42 µM (inactive) |
| O=S(=O)(NCc1ccccc1)c1ccc(S(=O)(=O)N(Cc2ccccn2)Cc2ccco2)cc1 | 16.7 µM |
| c1ccc(N2CCN(C3CCSC3)CC2)cc1 (centres undefined) | > 42 µM (inactive) |
| Cc1c(C2(O)CCCCC2)[nH]c2ccc(C#N)cc12 | > 42 µM (inactive) |
| COc1ccc(N2C(=O)CSC23CCCCC3)cc1 | > 42 µM (inactive) |
| CCOCCCNC(=O)C(c1ccc(OC)cc1)N(Cc1cccs1)C(=O)c1ccccn1 (centres undefined) | > 42 µM (inactive) |
| COc1ccc(S(=O)(=O)NC(C)C(=O)NCc2ccccn2)cc1Cl (centres undefined) | > 42 µM (inactive) |
| C/C(=N\N=C(c1ccccc1)c1ccccc1)c1ccco1 | > 42 µM (inactive) |
| Cc1ccccc1-c1nc(CN2CCCC(C(=O)NCc3cccnc3)C2)c(C)o1 (centres undefined) | > 42 µM (inactive) |
| CCC(C)(C)NC(=O)C(c1ccc(C)cc1)N(CC1CCCO1)C(=O)CNC(=O)c1cccs1 (centres undefined) | > 42 µM (inactive) |
| Cc1cc2nc(CCl)cc(=O)n2[nH]1 | > 42 µM (inactive) |
| O=C(O)c1cccc(N2C(=O)C3C4C=CC(C4=C(c4ccccc4)c4ccccc4)C3C2=O)c1 (centres undefined) | > 42 µM (inactive) |
| COCC(C)n1c(C)cc(C(=O)CSc2ccc(NC(C)=O)cc2)c1C (centres undefined) | > 42 µM (inactive) |
| O=C(COc1cccnc1[N+](=O)[O-])Nc1ccc2c(c1)CCC2 | > 21 µM (inactive) |
| Cc1cc(C)c(NC(=O)CNC(=O)c2cc([N+](=O)[O-])ccc2N2CCOCC2)c(C)c1 | > 42 µM (inactive) |
| Cc1ccc(/C=N/NC(=O)NC23CC4CC(CC(C4)C2)C3)o1 | > 42 µM (inactive) |
| Cc1nc2ccc(NC(=O)c3ccco3)cc2s1 | > 42 µM (inactive) |
| CCN(CC)c1ccc(N=Cc2c(O)n(Cc3ccccc3)c(=O)[nH]c2=O)cc1 | > 42 µM (inactive) |
| O=C(O)c1ccc(N=C2NC(=O)C(CO)(CO)S2)cc1 | > 42 µM (inactive) |
| CCOc1ccc(CCN2CN(C3CCCCC3)CNC2=S)cc1OCC | > 42 µM (inactive) |
| COc1ccc(N2CCN(C(c3cccs3)C(C)NS(C)(=O)=O)CC2)cc1 (centres undefined) | > 42 µM (inactive) |
| C=CCNC(=O)c1onc(CSc2cccc(C)c2)c1C(=O)O | > 42 µM (inactive) |

| Structure (SMILES) | AC50 |
| --- | --- |
| CCN(CC)S(=O)(=O)c1cc(NC(=O)COC(=O)CCc2nc3ccccc3s2)ccc1C | > 42 µM (inactive) |
| CCc1nccn1S(=O)(=O)c1cc(OC)ccc1OC | > 42 µM (inactive) |
| CCCc1nc2c(nnn2Cc2ccccc2F)c(=O)[nH]1 | > 42 µM (inactive) |
| CCOc1ccc(C(=O)c2cccs2)cc1 | > 42 µM (inactive) |
| CCOC(=O)Cc1csc(NC(=O)NC2(C(F)(F)F)Oc3ccccc3O2)n1 | > 42 µM (inactive) |
| NC(=O)NC(=O)COC(=O)/C=C/c1cccs1 | > 42 µM (inactive) |
| CC(=O)NC1CCCN(O)C(=O)/C=C(\C)CCOC(=O)C(NC(C)=O)CCCN(O)C(=O)/C=C(\C)CCOC(=O)C(NC(C)=O)CCCN(O)C(=O)/C=C(\C)CCOC1=O (centres undefined) | > 42 µM (inactive) |
| Cc1c(C(=O)N2CCN(CCc3ccccc3)CC2)oc2ccccc12 | > 42 µM (inactive) |
| CN1C(=O)C(=Cc2cn(CC(=O)N3CCCC3)c3ccccc23)C(=O)N(C)C1=O | > 42 µM (inactive) |
| CC(=O)NCCc1nc2cc(NC(=O)c3ccc(F)cc3)ccc2n1C | > 42 µM (inactive) |
| COC(=O)N/N=C/c1ccc(-c2ccc(Cl)cc2Cl)o1 | > 42 µM (inactive) |
| CN(C)/C=C/C(=O)c1ccncc1 | > 42 µM (inactive) |
| Cc1ccc(N2CN(CCc3ccccc3)CNC2=S)cc1 | > 42 µM (inactive) |
| Cc1cc(C(=O)NN)n[nH]1 | > 42 µM (inactive) |
| COc1ccc([N+](=O)[O-])c2c(=O)ccoc12 | > 42 µM (inactive) |
| COC(=O)[C@@H](NC(=O)Nc1ccc(S(N)(=O)=O)cc1)C(C)C | > 42 µM (inactive) |
| CN1C(=O)c2cccc3c(Cl)ccc(c23)C1=O | > 42 µM (inactive) |
| Nc1nnc(COc2ccc(Br)cc2Br)s1 | > 42 µM (inactive) |
| COc1ccc(Oc2c(C)oc3cc(OC(=O)N(C)C)ccc3c2=O)cc1 | > 42 µM (inactive) |
| Fc1ccccc1-n1cc(-c2ccccc2)[nH]c1=S | > 42 µM (inactive) |
| Clc1ccccc1-c1ccc2ncnc(NCc3cccs3)c2c1 | > 42 µM (inactive) |
| O=C(CCNC(=O)c1ccc(Br)cc1)NCc1ccccc1F | > 42 µM (inactive) |
| COc1ccc(S(=O)(=O)N2CCN(c3ccc(F)cc3)CC2)cc1C(=O)N1CCOCC1 | > 42 µM (inactive) |
| O=C(C1CCC(CNc2c(N3CCCCC3)c(=O)c2=O)CC1)N1CCN(C2CCCCC2)CC1 (centres undefined) | > 42 µM (inactive) |
| CCOC(=O)NC1(Nc2ccc(C)cc2)Oc2ccccc2O1 | > 42 µM (inactive) |

| Structure (SMILES) | AC50 |
| --- | --- |
| COCCCn1c(=O)c2ccccc2n(Cc2ccccc2C)c1=O | > 42 µM (inactive) |
| CN(C)S(=O)(=O)c1ccc(C(=O)/C=C/c2cccnc2)cc1 | > 42 µM (inactive) |
| Cc1cccc(NC(=O)CSCC(=O)N2CCCc3ccccc32)c1 | > 42 µM (inactive) |
| COC(=O)CCC(=O)OC1(C)C(=O)C=C2C=C(C3CC3)N(Cc3ccc4c(c3)OCO4)C=C2C1=O (centres undefined) | > 42 µM (inactive) |
| COc1ccc(CN2C(=O)C(=O)N(CC(N)=O)C2=O)cc1 | > 42 µM (inactive) |
| COc1ccc(C2SCC(=O)Nc3c2c(=O)[nH]n3C2CCCCC2)cc1 (centres undefined) | > 42 µM (inactive) |
| CCCc1nnc(NC(=O)c2cn(CC)c3cc(N4CCN(C)CC4)c(F)cc3c2=O)s1 | > 21 µM (inactive) |
| CCOC(=O)N1CCN(C(=O)CNC(=O)c2nn(-c3ccc(OC)c(OC)c3)c(=O)c3ccccc23)CC1 | > 42 µM (inactive) |
| CCOC(=O)c1sc(NC(=O)CSc2n[nH]c(-c3ccccc3)n2)c(C#N)c1C | > 42 µM (inactive) |
| Cc1nn(C)cc1S(=O)(=O)Nc1ncccn1 | > 42 µM (inactive) |
| Cc1cccc(N/N=C/c2c(O)[nH]c(=S)[nH]c2=O)c1 | > 42 µM (inactive) |
| Cn1c(=O)[nH]c(=O)c2c1nc(NCCN)n2CCOc1ccccc1 | > 42 µM (inactive) |
| Cc1[nH]c(C)c(S(=O)(=O)NCC(C)c2ccccc2)c1C(=O)N1CCCCC1 (centres undefined) | > 42 µM (inactive) |
| Cc1cccc(C)c1NS(=O)(=O)c1ccc(OCCNS(C)(=O)=O)cc1 | > 42 µM (inactive) |
| CC(=O)Nc1cccc(NC(=S)Nc2ccc(F)cc2F)c1 | > 42 µM (inactive) |
| COc1ccc(-n2c(-c3ccccc3)nc3ccccc3c2=O)cc1 | > 42 µM (inactive) |
| COc1ccc(NC(=O)CCC(=O)Nc2nnc(C(F)(F)F)s2)c(OC)c1 | > 42 µM (inactive) |
| O=C(c1ccc([N+](=O)[O-])o1)N1CCN(c2nc3c(Cl)cccc3s2)CC1 | > 42 µM (inactive) |
| CCCCC(O)(CCCC)C(=O)NN(C(=O)OC)c1ccc(C)cc1 | > 42 µM (inactive) |
| CCOC(=O)C1CC(c2ccccc2)=NNC1=O (centres undefined) | > 42 µM (inactive) |
| CN1CCN(CC(=O)N2c3ccccc3C(=O)Nc3cccnc32)CC1 | > 42 µM (inactive) |
| CCC1CCCCN1CCCNC(=O)C1CCC(CNS(=O)(=O)c2c(C)cc(C)cc2C)CC1 (centres undefined) | > 42 µM (inactive) |
| CCOCCCNCc1ccc(OCc2ccc(F)cc2)c(OC)c1 | > 42 µM (inactive) |
| CCCCCOC(=O)C1=C(C)N(C)C(=O)NC1c1cc(Br)c(O)c(OC)c1 (centres undefined) | > 42 µM (inactive) |
| O=S(=O)(Cc1ccccc1)N1CCN(c2ccccc2)CC1 | > 42 µM (inactive) |

| Structure (SMILES) | AC50 |
| --- | --- |
| CC1CC(C)(C)NC(=S)N1CC(=O)NCc1ccc(F)cc1 (centres undefined) | > 42 µM (inactive) |
| C[C@@]12C(=O)Nc3cc(F)ccc3C(=O)N1[C@H]1c3ccccc3OC[C@@H]1[C@@H]2c1ccccc1 | > 42 µM (inactive) |
| CCOc1ccc(-c2nnc(SCC(=O)N3CCCC3)o2)cc1 | > 42 µM (inactive) |
| CCOC(=O)CSc1cc(C)nc2ccc(OC)cc12 | > 42 µM (inactive) |
| Cc1cc(-c2ccc(Cl)cc2Cl)c(C#N)c(=O)[nH]1 | > 42 µM (inactive) |
| CN(C)CCOC(c1ccc(Cl)cc1)c1ccccn1 (centres undefined) | > 42 µM (inactive) |
| CCOC(=O)CS(=O)(=O)c1ccc2ccccc2c1 | > 42 µM (inactive) |
| CCN(CC)C(=O)C1CCCN(c2ccc([N+](=O)[O-])cc2/C=N/NC(=O)c2cccc(Br)c2)C1 (centres undefined) | > 42 µM (inactive) |
| CCCCCCCN1C(Nc2ccccc2)=NC[C@@H]1CC(C)C | > 21 µM (inactive) |
| COc1ccccc1NC(=O)CSc1nc(O)c(Cc2ccccc2)c(=O)[nH]1 | > 42 µM (inactive) |
| Cn1c(=O)c2c(nc(N/N=C/c3ccc(OC(=O)c4ccco4)cc3)n2Cc2ccccc2Cl)n(C)c1=O | > 42 µM (inactive) |
| COc1ccc(OC)c(CCNC(=O)c2ccc3c(c2)N(Cc2ccc(F)cc2)CCS3)c1 | > 42 µM (inactive) |
| COc1cc(S(=O)(=O)NC2CCCC2)c(OC)cc1C | > 42 µM (inactive) |
| Cc1sc(NC(=O)c2ccc(Br)s2)c(C(N)=O)c1C | > 42 µM (inactive) |
| COc1cc(CNCc2ccc3c(c2)OCO3)c([N+](=O)[O-])cc1OC | > 42 µM (inactive) |
| CCNC(=S)Nc1ccc(C)c(S(=O)(=O)Nc2ccccc2OC)c1 | > 42 µM (inactive) |
| COc1ccc(-c2[nH]ncc2CNCCn2cccn2)c(F)c1 | > 42 µM (inactive) |
| CCOC(=O)c1ccccc1NC(=O)C1CC(=O)N(C2CCCCC2)C1 (centres undefined) | > 42 µM (inactive) |
| CCC(=O)Nc1ccc(Br)c(Cl)c1 | > 42 µM (inactive) |
| CS(=O)(=O)N1CCCC(C(=O)NCc2ccco2)C1 (centres undefined) | > 42 µM (inactive) |
| Cc1ccc(NC(=O)Nc2cccc(C(F)(F)F)c2)nc1 | > 42 µM (inactive) |
| Cn1c(NCc2ccco2)nc2c1c(=O)n(Cc1ccc(Cl)cc1)c(=O)n2C | > 42 µM (inactive) |
| O=C(NC(=S)NNC(=O)c1ccccc1O)c1cccc([N+](=O)[O-])c1 | > 42 µM (inactive) |
| CN(C)c1ccc(C(=O)N2CCCC(CCC(=O)N3CCN(c4ccccn4)CC3)C2)cc1 (centres undefined) | > 42 µM (inactive) |
